The record followed here is US20120202701A1, “AN ANTIBODY-GLYCAN COMPLEX TARGETING THE DISIALYL CORE II AND SIALYL LEWIS X STRUCTURES, AND USES THEREOF INVOLVING ANALYSIS OF STEM CELLS OR CANCER CELLS” (GLYKOS FINLAND OY, priority 2009, published 2012).

The first assay concerns mAb CHO-131. Description: Glycan microarray analysis (Consortium for Functional Glycomics, printed array version 4.0), glycan binding of mAb CHO-131. The conditions noted are these: glycan microarray, as described. How it is done: (§1) mAb CHO-131 was purchased from R&D Systems (MAB996). mAb CSLEX was purchased form BD Biosciences (551344). Glycan microarray analysis was carried out by the Consortium for Functional Glycomics. Glycan microarrays were printed as described (Blixt 2004). Version 4.0 of the printed glycan array was used for analysis. Binding analysis was performed at 50 μg/ml of antibody. Data are reported as average RFU of 6 replicates after removal of highest and lowest values.
Turning to `CC(=O)N[C@H]1[C@H](OCCCN)O[C@H](CO)[C@@H](O)[C@@H]1O[C@@H]1O[C@H](C(=O)O)[C@@H](O)[C@H](O)[C@H]1O` [Chart Number 299, GlcAb1-3GlcNAcb-Sp8, reference compound], the “binding to CHO-131 antibody, in words” value is on record as “some binding”.

Staying with this assay, now noted: mAb CHO-131 at 50 μg/ml; average RFU of 6 replicates after removal of highest and lowest values.
`NCCO[C@@H]1O[C@H](COS(=O)(=O)O)[C@@H](O[C@@H]2O[C@H](CO)[C@H](O)[C@H](O)[C@H]2O)[C@H](O)[C@H]1O` [compound 146]: the RFU was 148 RFU.

Regarding `C[C@@H]1O[C@@H](O[C@H]2[C@H](O[C@@H]3O[C@H](CO)[C@H](O)[C@H](O)[C@H]3O)[C@@H](COS(=O)(=O)O)OC(OCCN)[C@@H]2O)[C@@H](O)[C@H](O)[C@@H]1O` (stereo partly drawn) [compound 281], the RFU came to 138 RFU.

In turn, `CC(=O)N[C@H]1C(OCCN)O[C@H](COS(=O)(=O)O)[C@@H](O)[C@@H]1O[C@@H]1O[C@H](COS(=O)(=O)O)[C@H](O)[C@H](O)[C@H]1O` (stereo partly drawn) [compound 440] registered an RFU of 1773 RFU.

Compound `NCCCO[C@@H]1O[C@H](COS(=O)(=O)O)[C@@H](O[C@@H]2O[C@H](CO)[C@H](O)[C@H](OS(=O)(=O)O)[C@H]2O)[C@H](O)[C@H]1O` [compound 25] had an RFU of 903 RFU.

For `CC(=O)N[C@H]1[C@H](OCCN)O[C@H](CO)[C@@H](O[C@@H]2O[C@H](CO)[C@H](O)[C@H](O[C@]3(C(=O)O)C[C@H](O)[C@@H](NC(C)=O)[C@H]([C@H](O)[C@H](O)COC(C)=O)O3)[C@H]2O)[C@@H]1O` [compound 323], the RFU is recorded as 271 RFU.

`CC(=O)N[C@H]1[C@H](OCCN)O[C@H](CO)[C@@H](O[C@@H]2O[C@H](COS(=O)(=O)O)[C@H](OS(=O)(=O)O)[C@H](O)[C@H]2O)[C@@H]1O` [compound 36] returned an RFU of 427 RFU.

In turn, `CC(=O)N[C@H]1[C@H](OCCCN)O[C@H](COS(=O)(=O)O)[C@@H](O[C@@H]2O[C@H](CO[C@]3(C(=O)O)C[C@H](O)[C@@H](NC(C)=O)[C@H]([C@H](O)[C@H](O)CO)O3)[C@H](O)[C@H](O)[C@H]2O)[C@@H]1O` [compound 256] had an RFU of 243 RFU.

With `NCCCO[C@@H]1O[C@H](C(=O)O)[C@@H](O)[C@H](O)[C@H]1O` [compound 193], the RFU is listed as 274 RFU.

`NCCCO[C@H]1O[C@H](C(=O)O)[C@@H](O)[C@H](O)[C@H]1O` [compound 192]: the RFU was determined as 227 RFU.

Compound `CC(=O)N[C@H]1[C@H](OCCCN)O[C@H](COS(=O)(=O)O)[C@@H](O[C@@H]2O[C@H](CO)[C@H](O)[C@H](O[C@]3(C(=O)O)C[C@H](O)[C@@H](NC(C)=O)[C@H]([C@H](O)[C@H](O)CO)O3)[C@H]2O)[C@@H]1O[C@@H]1O[C@@H](C)[C@@H](O)[C@@H](O)[C@@H]1O` [compound 241] yielded an RFU of 256 RFU.

In turn, `CC(=O)N[C@H]1[C@H](OCCCN)O[C@H](COS(=O)(=O)O)[C@@H](O[C@@H]2O[C@H](CO)[C@H](O)[C@H](OS(=O)(=O)O)[C@H]2O)[C@@H]1O` [compound 32] returned an RFU of 584 RFU.

`NCCCO[C@@H]1O[C@H](CO)[C@H](O)[C@H](OS(=O)(=O)O)[C@H]1O` [compound 35] had an RFU of 345 RFU.

The compound `CC(=O)N[C@H]1[C@H](OCCN)O[C@H](COS(=O)(=O)O)[C@@H](O[C@@H]2O[C@H](CO)[C@H](O)[C@H](OS(=O)(=O)O)[C@H]2O)[C@@H]1O` [compound 31] yielded an RFU of 266 RFU.

On to `NCCCO[C@@H]1O[C@H](COS(=O)(=O)O)[C@@H](O[C@@H]2O[C@H](COS(=O)(=O)O)[C@H](O)[C@H](O)[C@H]2O)[C@H](O)[C@H]1O` [compound 42], for which the RFU was determined as 505 RFU.

For `CC(=O)N[C@H]1C(OCCCN)O[C@H](COS(=O)(=O)O)[C@@H](O[C@@H]2O[C@H](CO)[C@H](O)[C@H](OS(=O)(=O)O)[C@H]2O)[C@@H]1O[C@@H]1O[C@@H](C)[C@@H](O)[C@@H](O)[C@@H]1O` (stereo partly drawn) [compound 210], the RFU is 403 RFU.

`CC(=O)N[C@H]1[C@H](OCCN)O[C@H](CO)[C@@H](O[C@@H]2O[C@H](CO)[C@H](O)[C@H](O[C@@H]3O[C@H](COS(=O)(=O)O)[C@@H](O)[C@H](O)[C@H]3NC(C)=O)[C@H]2O)[C@@H]1O` [compound 351] yielded an RFU of 138 RFU.

The compound `C[C@@H]1O[C@@H](O[C@H]2[C@H](O[C@H]3[C@H](O)[C@@H](O)C(OCCN)O[C@@H]3COS(=O)(=O)O)O[C@H](COS(=O)(=O)O)[C@H](O)[C@@H]2O)[C@@H](O)[C@H](O)[C@@H]1O` (stereo partly drawn) [compound 213] showed an RFU of 1100 RFU.

Another assay deals with mAb CSLEX. Description: Glycan microarray analysis (Consortium for Functional Glycomics, printed array version 4.0), glycan binding of mAb CSLEX. The following applies: mAb CSLEX at 50 μg/ml; average RFU of 6 replicates after removal of highest and lowest values. As for the experimental part:
as §1
In the case of `CC(=O)NC1C(OCCCN)OC(COC2(C(=O)O)CC(O)C(NC(C)=O)C(C(O)C(O)CO)O2)C(O)C1O` (stereo not drawn) [compound 267], the RFU was determined as 29 RFU.

`CC(=O)NC1C(O)CC(OC2C(O)C(CO)OC(OC3C(NC(C)=O)C(OC4C(O)C(CO)OC(OC5C(NC(C)=O)C(OCCN)OC(CO)C5OC5OC(C)C(O)C(O)C5O)C4O)OC(CO)C3OC3OC(C)C(O)C(O)C3O)C2O)(C(=O)O)OC1C(O)C(O)CO` (stereo not drawn) [compound 326] had an RFU of 42 RFU.

For `NCCCO[C@@H]1O[C@H](CO)[C@H](O)[C@H](O[C@@H]2O[C@H](CO)[C@H](O)[C@H](O)[C@H]2O)[C@H]1O` [compound 137], the RFU came out at 37 RFU.

In the case of `CC(=O)N[C@H]1[C@H](O[C@@H]2[C@H](O)[C@@H](O)[C@H](O[C@H]3[C@H](O)[C@@H](O)[C@H](OCCCN)O[C@@H]3CO)O[C@@H]2CO)O[C@H](CO)[C@H](O)[C@@H]1O[C@@H]1O[C@H](CO)[C@H](O)[C@H](O)[C@H]1O` [compound 136], the RFU worked out at 58 RFU.

`CC(=O)N[C@H]1[C@H](OCCCN)O[C@H](CO)[C@@H](O[C@@H]2O[C@H](CO)[C@H](O)[C@H](O)[C@H]2O)[C@@H]1O` [compound 161]: the RFU is 34 RFU.

For `CC(=O)N[C@H]1[C@@H](OCCCN)O[C@H](CO[C@@H]2O[C@H](CO)[C@@H](O)[C@H](O)[C@H]2NC(C)=O)[C@H](O[C@@H]2O[C@H](CO)[C@@H](O)[C@H](O)[C@H]2NC(C)=O)[C@@H]1O` [compound 177], the RFU came to 29 RFU.

For the compound `CC(=O)N[C@H]1[C@H](O[C@@H]2[C@H](O)[C@@H](O)[C@H](O[C@H]3[C@H](O[C@@H]4O[C@@H](C)[C@@H](O)[C@@H](O)[C@@H]4O)[C@@H](NC(C)=O)[C@H](OCCN)O[C@@H]3CO)O[C@@H]2CO)O[C@H](CO)[C@@H](O[C@@H]2O[C@H](CO)[C@H](O)[C@H](O)[C@H]2O)[C@@H]1O[C@@H]1O[C@@H](C)[C@@H](O)[C@@H](O)[C@@H]1O` [compound 144], the RFU was 28 RFU.

Consider `CC(=O)N[C@H]1[C@H](OCCCN)O[C@H](CO)[C@@H](O[C@@H]2O[C@H](CO)[C@H](O)[C@H](O[C@@H]3O[C@H](CO)[C@H](O)[C@H](O)[C@H]3O)[C@H]2O)[C@@H]1O` [compound 291], for which the RFU is on record as 46 RFU.

In turn, `CC(=O)N[C@H]1[C@H](OCCN)O[C@H](CO)[C@@H](O[C@@H]2O[C@H](CO[C@H]3O[C@H](CO)[C@@H](O[C@@H]4O[C@H](CO)[C@H](O)[C@H](O)[C@H]4O)[C@H](O)[C@H]3NC(C)=O)[C@H](O)[C@H](O)[C@H]2O)[C@@H]1O` [compound 295] displayed an RFU of 30 RFU.
